Test results reported in the NIST ThermoML archive (doi:10.1021/je8003723).

Legend:
[1] = 308.15 K, 101.3 kPa, Liquid; for viscosity: Capillary tube (Ostwald / Ubbelohde) method; for mass density: Pycnometric method; for speed of sound: Sing-around technique in a fixed-path interferometer
[2] = xn = mol fraction of the nth substance listed; settings: 308.15 K, 101 kPa, Liquid; for viscosity: Capillary tube (Ostwald / Ubbelohde) method; for mass density: Pycnometric method; for speed of sound: Sing-around technique in a fixed-path interferometer

N#CCc1ccccc1 [benzeneacetonitrile]
[1]
Settings | mass density [kg/m3] | speed of sound [m/s] | viscosity [mPa·s]
– | 1003.2 | 1518 | 1.585

CCCC(C)=O [pentan-2-one] + N#CCc1ccccc1
[2], x2 = 0
Settings | mass density [kg/m3] | speed of sound [m/s] | viscosity [mPa·s]
– | 790.8 | 1179 | 0.394

CCC(=O)CC [pentan-3-one]
[1]
Settings | mass density [kg/m3] | speed of sound [m/s] | viscosity [mPa·s]
– | 800 | 1185 | 0.371

CC(=O)CC(C)C [4-methylpentan-2-one] + N#CCc1ccccc1
[2], x2 = 0
Settings | mass density [kg/m3] | speed of sound [m/s] | viscosity [mPa·s]
– | 786.8 | 1150 | 0.455

N#CCc1ccccc1 [benzeneacetonitrile] + CC(=O)CC(C)C
[2]
Settings | mass density [kg/m3] | speed of sound [m/s] | viscosity [mPa·s]
x1 = 0.0271 | 792.5 | 1166 | 0.475
x1 = 0.16 | 823.3 | 1212 | 0.573
x1 = 0.2926 | 852.2 | 1261 | 0.679
x1 = 0.3931 | 874.6 | 1298 | 0.775
x1 = 0.5217 | 902.8 | 1340 | 0.91
x1 = 0.6436 | 928.9 | 1382 | 1.049
x1 = 0.7407 | 949.8 | 1414 | 1.164
x1 = 0.8599 | 976 | 1459 | 1.338
x1 = 0.9758 | 998.1 | 1498 | 1.523
x1 = 1 | 1003.2 | 1518 | 1.585

N#CCc1ccccc1 [benzeneacetonitrile] + CCC(=O)CC
[2]
Settings | mass density [kg/m3] | speed of sound [m/s] | viscosity [mPa·s]
x1 = 0.0235 | 806 | 1199 | 0.388
x1 = 0.1407 | 835.4 | 1237 | 0.474
x1 = 0.2569 | 861.5 | 1278 | 0.567
x1 = 0.358 | 883.3 | 1314 | 0.665
x1 = 0.4803 | 909 | 1354 | 0.79
x1 = 0.6048 | 933.7 | 1397 | 0.936
x1 = 0.6943 | 951.2 | 1421 | 1.064
x1 = 0.8378 | 976.7 | 1471 | 1.281
x1 = 0.9722 | 998.9 | 1496 | 1.528
x1 = 1 | 1003.2 | 1518 | 1.585

CCC(C)=O [butanone] + N#CCc1ccccc1
[2], x2 = 0
Settings | mass density [kg/m3] | speed of sound [m/s] | viscosity [mPa·s]
– | 789.2 | 1157 | 0.316

N#CCc1ccccc1 [benzeneacetonitrile] + CCC(C)=O
[2]
Settings | mass density [kg/m3] | speed of sound [m/s] | viscosity [mPa·s]
x1 = 0.0205 | 796.1 | 1167 | 0.334
x1 = 0.1218 | 825.9 | 1208 | 0.412
x1 = 0.2283 | 854 | 1265 | 0.497
x1 = 0.3188 | 876.8 | 1308 | 0.583
x1 = 0.4403 | 905.5 | 1356 | 0.72
x1 = 0.5655 | 931.3 | 1397 | 0.868
x1 = 0.6706 | 950.7 | 1421 | 1.015
x1 = 0.8086 | 974.1 | 1454 | 1.228
x1 = 0.9657 | 998.1 | 1497 | 1.498
x1 = 1 | 1003.2 | 1518 | 1.585

CC(=O)CC(C)C [4-methylpentan-2-one]
[1]
Settings | mass density [kg/m3] | speed of sound [m/s] | viscosity [mPa·s]
– | 786.8 | 1150 | 0.455

CCC(=O)CC [pentan-3-one] + N#CCc1ccccc1
[2], x2 = 0
Settings | mass density [kg/m3] | speed of sound [m/s] | viscosity [mPa·s]
– | 800 | 1185 | 0.371

N#CCc1ccccc1 [benzeneacetonitrile] + CCCC(C)=O
[2]
Settings | mass density [kg/m3] | speed of sound [m/s] | viscosity [mPa·s]
x1 = 0.0221 | 797 | 1189 | 0.41
x1 = 0.1416 | 826.8 | 1228 | 0.495
x1 = 0.2622 | 856 | 1271 | 0.6
x1 = 0.3564 | 877.5 | 1313 | 0.685
x1 = 0.4811 | 904.2 | 1363 | 0.819
x1 = 0.6125 | 931.5 | 1394 | 0.976
x1 = 0.7133 | 950.9 | 1418 | 1.1
x1 = 0.8389 | 974.8 | 1456 | 1.29
x1 = 0.9736 | 998.6 | 1499 | 1.509
x1 = 1 | 1003.2 | 1518 | 1.585

CCCC(C)=O [pentan-2-one]
[1]
Settings | mass density [kg/m3] | speed of sound [m/s] | viscosity [mPa·s]
– | 790.8 | 1179 | 0.394

CCC(C)=O [butanone]
[1]
Settings | mass density [kg/m3] | speed of sound [m/s] | viscosity [mPa·s]
– | 789.2 | 1157 | 0.316
